Source: patent US7576103B2, “Tetralin and indane derivatives and uses thereof” (Roche Palo Alto LLC, priority 2004, dated 2009)

How the values were obtained:
[1] = biological target: T1, recombinant human 5-HT6 receptor (Homo sapiens, UniProt P50406); assay: Radioligand binding, [3H]LSD competition, 5-HT6; settings: membranes of HEK293 cells, pH 7.4, 37° C., read-out: pKi for the 5-HT6 receptor (converted)
T1 construct: expressed in transfected cells; cell membranes
Experimental: (§1) The binding activity of compounds of this invention in vitro was determined as follows. Duplicate determinations of 5-HT6 ligand affinity were made by competing for binding of [^3H]LSD in cell membranes derived from HEK293 cells stably expressing recombinant human 5-HT6 receptor. Duplicate determinations of 5-HT2A ligand affinity were made by competing for binding of [^3H]Ketanserin (3-(2-(4-(4-fluorobenzoyl)piperidinol)ethyl)-2,4(1H,3H)-quinazolinedione) in cell membranes derived from CHO-K1 cells stably expressing recombinant human 5-HT2A receptor. Membranes were prepared from HEK 293 cell lines by the method described by Monsma et al., Molecular Pharmacology, Vol. 43 pp. 320-327 (1993), and from CHO-K1 cell lines as described by Bonhaus et al., Br J Pharmacol. June 115(4):622-8 (1995).
(§2) For estimation of affinity at the 5-HT6 receptor, all determinations were made in assay buffer containing 50 mM Tris-HCl, 10 mM MgSO4, 0.5 mM EDTA, 1 mM ascorbic acid, pH 7.4 at 37° C., in a 250 microliter reaction volume. […]
(§3) Assay tubes containing [^3H] […] LSD or [^3H]Ketanserin were determined as radioactive counts per minute using Packard TopCount.
(§4) Displacement of [^3H]LSD or [^3H]Ketanserin from the binding sites was quantified by fitting concentration-binding data to a 4-parameter logistic equation: […]

[2] = biological target: T2, recombinant human 5-HT2A receptor (Homo sapiens, UniProt P28223); assay: Radioligand binding, [3H]Ketanserin competition, 5-HT2A; settings: membranes of CHO-K1 cells, pH 7.4, 32° C., read-out: pKi for the 5-HT2A receptor (converted)
T2 construct: expressed in transfected cells; cell membranes
T2 sequence (P28223 whole entry): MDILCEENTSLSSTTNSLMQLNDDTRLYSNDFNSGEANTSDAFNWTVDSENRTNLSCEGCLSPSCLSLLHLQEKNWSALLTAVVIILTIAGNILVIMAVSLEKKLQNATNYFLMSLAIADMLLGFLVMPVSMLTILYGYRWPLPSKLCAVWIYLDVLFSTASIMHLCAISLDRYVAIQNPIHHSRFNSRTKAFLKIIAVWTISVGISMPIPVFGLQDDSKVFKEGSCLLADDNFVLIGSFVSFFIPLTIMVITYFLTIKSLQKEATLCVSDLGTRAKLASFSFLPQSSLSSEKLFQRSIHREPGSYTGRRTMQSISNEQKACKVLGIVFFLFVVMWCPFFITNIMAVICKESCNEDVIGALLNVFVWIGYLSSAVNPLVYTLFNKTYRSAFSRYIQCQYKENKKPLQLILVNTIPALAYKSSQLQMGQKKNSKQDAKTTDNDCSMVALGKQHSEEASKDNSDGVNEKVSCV
Experimental: as §1, §2, §3, §4

T1 sequence (P50406 whole entry): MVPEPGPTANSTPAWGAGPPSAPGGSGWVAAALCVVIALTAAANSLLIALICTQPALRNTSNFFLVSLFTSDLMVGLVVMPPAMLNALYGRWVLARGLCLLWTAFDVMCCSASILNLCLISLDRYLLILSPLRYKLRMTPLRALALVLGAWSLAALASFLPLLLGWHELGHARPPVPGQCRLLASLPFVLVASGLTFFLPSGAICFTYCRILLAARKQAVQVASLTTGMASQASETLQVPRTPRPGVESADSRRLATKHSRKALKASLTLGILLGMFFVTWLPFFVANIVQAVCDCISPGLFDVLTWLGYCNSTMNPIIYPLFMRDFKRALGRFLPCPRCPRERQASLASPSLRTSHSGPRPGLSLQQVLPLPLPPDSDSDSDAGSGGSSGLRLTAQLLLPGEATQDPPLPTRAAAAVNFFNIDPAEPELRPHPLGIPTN

Ki [1]: 0.00182 µM
Ki [2]: 0.0617 µM
SMILES: CNCCOC1CCCc2cc(S(=O)(=O)c3ccccc3)ccc21 (centres unmarked) [Compound 5, [2-(6-Benzenesulfonyl-1,2,3,4-tetrahydro-naphthalen-1-yloxy)-ethyl]-methyl-amine]
